Experimental data as given in patent US20160326098A1, “Pharmaceutically Active Compound for Use as Anti-inflammatory Agent” (Pax Forschung GmbH, priority 2013, published 2016).

Key:
Format in all cases: in vivo
[1] = tested on: collagen-induced arthritis (CIA); assay: Collagen-induced arthritis (CIA), clinical evaluation; conditions: mice, 1.11 mmol/kg force-fed from first immunization until end
Description: Further clinical studies were performed with animals having collagen-induced arthritis (CIA). In these studies, mice were used as test animals. At the age of eight weeks, the animals were immunized intradermally at the base of the tail with 50 μl of bovine collagen II emulsified in 50 μl of complete Freund's adjuvant. A second booster immunization was performed 3 weeks later, when 50 μl of incomplete Freund's adjuvant was administered with or without the same volume of collagen H. The animals were randomly allocated into experimental groups wherein group 1 served as control, having no arthritis, group 2 served as second control having arthritis, but receiving no further treatment, and group 3 having arthritis and being treated with compound according to the invention. The animals of group 3 were force-fed 1.11 mmol/kg body weight of the compound according to the invention from the first immunization until the end of the experiments. The severity of CIA was evaluated using a clinical scoring system; inflammatory hyperalgesia was detected with thermal stimulation. […]

myeloperoxidase (MPO) [2] = assay: Tissue myeloperoxidase activity, mice with TNBS-induced colitis; conditions: gastric and colon tissue, 1.11 mmol/kg, one day after treatment, vs untreated colitis and ASS groups, FIGS. 13a/13b
Description: (§1) Colonic inflammation was induced by intracolonic administration of TNBS (2,4,6-trinitrobenzenesulfonic acid) (40 mg/kg in 0.25 ml of 25% aqueous ethanol) through an 8-cm-long soft plastic catheter under transient diethylether anesthesia. In the sham-operated groups, only the vehicle for TNBS was administered. The animals were deprived of food, but not water, for 12 h before the enemas.
(§2) Colon biopsies kept on ice were homogenized in phosphate buffer (pH 7.4) containing 50 mM Tris-HCl (Reanal, Budapest, Hungary), 0.1 mM EDTA, 0.5 mM dithiothreitol, 1 mM phenylmethylsulfonyl fluoride, 10 μg/ml soybean trypsin inhibitor, and 10 μg/ml leupeptin (Sigma Aldrich GmbH, Munich, Germany). […] The activity of myeloperoxidase (MPO) was measured on the pellet of the homogenate.
(§3) The activity of MPO as a marker of tissue leukocyte infiltration was measured on the pellet of the homogenate. […] The reaction led to the hydrogen peroxide-dependent oxidation of tetramethylbenzidine, which could be detected spectrophotometrically at 450 nm (UV-1601 spetrophotometer; Shimadzu, Kyoto, Japan). Myeloperoxidase activities were measured at 37° C.; the reaction was stopped after 5 minutes by the addition of 0.2 ml of H2SO4 (2 M), and the resulting data were referred to the protein content. […]

nitrite/nitrate (NOx) = assay: Tissue nitrite/nitrate level, mice with TNBS-induced colitis; conditions: gastric and colon tissue, 1.11 mmol/kg, FIGS. 15a/15b
Description: as §1
The levels of plasma nitrite/nitrate (NOx), stable end products of NO were measured by the Griess reaction. This assay depends on the reduction of nitrate to nitrite, which is then converted into a colored azo dye compound that is detected spectrophotometrically at 540 nm.
The above-described clinical studies were repeated with animals having colitis which was induced as described above. […] Two days after the enema the effects of the treatment were determined by measurement of body weight, blood gas analysis and biopsy. […] Surgery was performed to allow registration of the hemodynamic parameters at 1 h intervals for 6 h (cardiac output [CO] data were measured only at the end of the experiments). […] In addition, fluorescence confocal endomicroscopy was performed to examine the microvasculature and morphologic changes of the mucosa of the distal colon, and full-thickness tissue samples and venous blood samples were taken to determine the biochemical changes in the colon and plasma.

myeloperoxidase (MPO) [3] = assay: Tissue myeloperoxidase activity, rats with TNBS-induced colitis; conditions: gastric and colon tissue, one day after 1.11 mmol/kg, vs untreated colitis and ASS groups, FIGS. 32a/32b
Description: as §1, §2, §3

**Q.** Which results are given for `CC(=O)Oc1ccccc1C(=O)NC(CO)(CO)CO` [compound according to the invention]?
**A.** severity of CIA (clinical scoring system of Nandakumar) ([1]; vs untreated arthritis group 2, FIG. 36): less serious arthritis; incidence of CIA ([1]; same in untreated arthritis group 2, FIG. 36): 90%; myeloperoxidase enzyme activity (myeloperoxidase (MPO) [2]): decrease of activity; nitrite/nitrate level (nitrite/nitrate (NOx)): nitrite/nitrate levels comparable to those of healthy animals; myeloperoxidase enzyme activity (myeloperoxidase (MPO) [3]): decrease of activity
